In patent publication US20060247271A1, “Sulphonyl hydroxamic acid derivatives as inhibitors of s-cd23” (priority 2003, published 2006):

Key:
MMP-3 = molecular target: T1, MMP-3 (Homo sapiens, UniProt P08254); assay: General MMP inhibition fluorescence quench assay, MMP-3; assay type: biochemical; conditions: room temperature
T1 construct: purchased Calbiochem
Protocol: (§1) General MMP Inhibition Assays:
(§2) Inhibition of matrix metalloprotease activity was determined using a fluorescence quench assay with appropriate substrate. For example, MMP activity was determined using MMP activated using trypsin, according to Lark et al, Connective Tissue Res. 25, 52 (1990). The MMP is incubated at room temperature in a microtitre plate in a total volume of 100 ul, containing 0.15 M Tris Cl, 15 mM CaCl2, 0.2 M NaCl, pH 7.6 (assay buffer); inhibitor at concentrations up to 100 uM, with no more than 2% DMSO final concentration, 10 uM substrate (such as SDP-3815-PI for MMP-1, Peptides International). The MMP concentration is <10 nM, and determined empirically with the appropriate substrate to give at least a 20-fold increase in fluorescence emission in 30 min. Fluorescent excitation wavelength was 355 nm, emission wavelength 400-460 nm, and data points are collected to generate slope (change in fluorescence with time). Percent inhibition for each concentration is calculated from the slope at time zero, and IC50 values from the concentration dependence. MMP-1, 2, 3, 7, 9, 13, 14 may all be assayed in the same manner, using commercially available substrates reported to be effective for each enzyme. Enzymes were obtained from Calbiochem and activated using the same trypsin method.

[1] = molecular target: T2, human recombinant collagenase (Homo sapiens, UniProt P03956); assay: Collagenase inhibition assay; assay type: biochemical; conditions: 37° C., 18 h, acetylated 3H type 1 bovine collagen
T2 construct: made in house; host or cells: E. coli
T2 sequence (P03956 100-469): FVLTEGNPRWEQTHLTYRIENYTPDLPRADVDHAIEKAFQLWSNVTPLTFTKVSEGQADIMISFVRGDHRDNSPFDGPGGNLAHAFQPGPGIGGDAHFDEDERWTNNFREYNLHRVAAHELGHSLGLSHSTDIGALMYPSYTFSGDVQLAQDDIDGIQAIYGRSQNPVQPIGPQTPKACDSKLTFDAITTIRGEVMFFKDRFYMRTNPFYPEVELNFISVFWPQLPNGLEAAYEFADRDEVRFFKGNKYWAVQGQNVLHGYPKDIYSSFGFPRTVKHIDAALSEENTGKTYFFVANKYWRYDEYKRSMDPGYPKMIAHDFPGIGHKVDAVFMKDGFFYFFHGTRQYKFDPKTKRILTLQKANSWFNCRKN
Protocol: Procedure 2: The ability of test compounds to inhibit matrix metalloproteases was investigated using the following procedures.
Collagenase Inhibition Assay:
The potency of compounds to act as inhibitors of collagenase was determined by the method of Cawston and Barrett (Anal. Biochem. 99, 340-345, 1979), hereby incorporated by reference, whereby a 1 mM solution of the inhibitor being tested or dilutions thereof, was incubated at 37° C. for 18 h with collagen and human recombinant collagenase, from synovial fibroblasts cloned, expressed and purified from E. Coli, (buffered with 150 mM Tris, pH 7.6, containing 15 mM calcium chloride, 0.05% Brij 35, 200 mM sodium chloride and 0.02% sodium azide). The collagen was acetylated ^3H type 1 bovine collagen prepared by the method of Cawston and Murphy (methods in Enzymology 80, 711,1981) The samples were centrifuged to sediment undigested collagen and an aliquot of the radioactive supernatant removed for assay on a scintillation counter as a measure of hydrolysis. The collagenase activity in the presence of 1 mM inhibitor, or dilution thereof, was compared to activity in a control devoid of inhibitor and the results reported as that concentration effecting 50% of the collagenase (IC50).

[2] = test system: release of soluble CD23 (RPMI 8866 cell plasma membranes); assay: RPMI 8866 cell membrane CD23 cleavage activity assay; assay type: biochemical, human; conditions: RPMI 8866 plasma membranes, 37° C., sCD23 by EIA; read-out: IC50, inhibition of production of sCD23
Protocol: Procedure 1: The ability of test compounds to inhibit the release of soluble CD23 was investigated by use of the following procedure.
RPMI 8866 Cell Membrane CD23 Cleavage Activity Assay:
Plasma membranes from RPMI 8866 cells, a human Epstein-Barr virus transformed B-cell line (Sarfati et al., Immunology 60 [1987] 539-547) expressing high levels of CD23 are purified using an aqueous extraction method. Cells resuspended in homogenization buffer (20 mM HEPES pH 7.4, 150 mM NaCl, 1.5 mM MgCl2, 1 mM DTT) are broken by N2 cavitation in a Parr bomb and the plasma membrane fraction mixed with other membranes is recovered by centrifugation at 10,000×g. […]
The fractionated membranes are incubated at 37° C. for times up to 4 hrs to produce fragments of CD23 which are separated from the membrane by filtration in 0.2 micron Durapore filter plates (Millipore) after quenching the assay with 5 uM Preparation 1 from WO 95/31457 ([4-(N-Hydroxyamino)-2-(R)-isobutyl-3-(S)-(2-thiophenethiomethyl)succinyl]-(S)-phenylalanine—methylamide sodium salt, prepared according to the procedure descibed in Example 11 of WO 90/05719). sCD23 released from the membrane is determined using the EIA kit from The Binding Site (Birmingham, UK) or a similar one utilising MHM6 anti-CD23 mAb [Rowe et al., Int. […]

MMP-13 = molecular target: T3, MMP-13 (Homo sapiens, UniProt P45452); assay: General MMP inhibition fluorescence quench assay, MMP-13; assay type: biochemical; conditions: room temperature
T3 construct: purchased Calbiochem
Protocol: as §1, §2

T1 sequence (P08254 100-477, species assumed): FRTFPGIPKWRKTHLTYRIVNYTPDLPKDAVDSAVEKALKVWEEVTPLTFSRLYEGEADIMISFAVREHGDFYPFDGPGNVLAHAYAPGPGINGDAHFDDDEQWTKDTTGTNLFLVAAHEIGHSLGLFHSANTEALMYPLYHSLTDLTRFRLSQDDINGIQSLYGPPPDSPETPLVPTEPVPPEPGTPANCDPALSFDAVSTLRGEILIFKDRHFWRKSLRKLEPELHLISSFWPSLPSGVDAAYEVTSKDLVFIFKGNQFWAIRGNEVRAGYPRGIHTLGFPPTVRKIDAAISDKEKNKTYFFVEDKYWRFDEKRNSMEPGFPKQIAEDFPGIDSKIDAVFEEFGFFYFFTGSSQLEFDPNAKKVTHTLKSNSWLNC

| IC50 (MMP-3) | IC50 [1] | IC50 [2] | IC50 (MMP-13) | SMILES |
| --- | --- | --- | --- | --- |
| > 10 µM | > 10 µM | 0.01 µM | – | O=C(NO)C(CS(=O)(=O)Cc1cnc2ccccc2c1)c1ccccc1 (centres unmarked) [Example 1, N-Hydroxy-2-phenyl-3-(3-quinolylmethanesulfonyl)-propionamide] |
| – | – | 0.11 µM | 7 µM | CCCO[C@@H](CS(=O)(=O)Cc1cnc2ccccc2c1)C(=O)NO [Example 2, (R)—N-Hydroxy-2-propoxy-3-(quinolin-3-ylmethanesulfonyl)-propionamide] |
